{"source": "patent US10421761B2", "about": "“Compounds for kinase modulation, and indications therefor” (Plexxikon Inc., priority 2013, dated 2019)", "assay": "Plasma exposure (PK analysis) in the xenograft efficacy study", "format": "in vivo", "conditions": "mouse, oral, COLO205 xenograft model, 25 mg/kg twice daily, read-out: plasma exposure, steady state AUC", "procedure": "All animal studies were conducted in accordance with the Institute for Laboratory Animal Research Guide for the Care and Use of Laboratory Animals and the USDA Animal Welfare Act. The same formulation was used for both COL0205 and B9 xenograft studies. The powder of test compound was dissolved in pure N-methyl-2-pyrrolidone (NMP). Diluent consists of PEG400: TPGS:Poloxamer 407:Water (40:5:5:50). Before gavage administration, fresh stock of NMP compound solution (or NMP for vehicle) was thoroughly mixed with the diluents to make a uniform suspension. Dosing volume is 5 μl/g. On the last day of the efficacy study, blood samples were collected at 0, 2, 4, and 8 hrs after last dosing, 2 animals/time point, for PK analysis."}
{"compound": "CCCS(=O)(=O)Nc1ccc(F)c(C(=O)c2c[nH]c3ncc(-c4ccc(Cl)cc4)cc23)c1F", "note": "[vemurafenib]", "values": [{"measurement": "AUC", "result": 200, "unit": "µg·h/mL"}]}
